Patent US9790202B2, “Anthranilamide derivatives as pesticides” (priority 2010, dated 2017)
Like-named read-outs stand apart in the source and are kept apart here.

Experiments:
[1] = log P determination by HPLC on reversed-phase columns (C 18), acidic range; assay type: physicochemical
Method: The log P values reported in the table above and in the Preparation Examples were determined in accordance with EEC Directive 79/831 Annex V.A8 by HPLC (High Performance Liquid Chromatography) on reversed-phase columns (C 18), with the following methods:
The LC-MS determination in the acidic range is effected at pH 2.7 using 0.1% aqueous formic acid and acetonitrile (contains 0.1% formic acid) as eluents, linear gradient from 10% acetonitrile to 95% acetonitrile
The calibration was effected with unbranched alkan-2-ones (having 3 to 16 carbon atoms) with known log P values (log P values determined on the basis of the retention times by linear interpolation between two successive alkanones).

[2] = test system: larvae of the mustard beetle (Phaedon cochleariae); experiment: Phaedon test (PHAECO spray treatment), Use Example 2; assay type: in vivo; conditions: foliar, 168 h, read-out: efficacy in % (beetle larvae killed)
Method: Phaedon Test (PHAECO Spray Treatment)
(§1) Solvent: 78.0 parts by weight of acetone 1.5 parts by weight of dimethylformamide
(§2) Emulsifier: 0.5 part by weight of alkylaryl polyglycol ether
(§3) To produce an appropriate active ingredient formulation, 1 part by weight of active ingredient is mixed with the stated amounts of solvent and emulsifier, and the concentrate is diluted with emulsifier-containing water to the desired concentration.
Leaf discs of Chinese cabbage (Brassica pekinensis) are sprayed with an active ingredient formulation of the desired concentration and, after drying, populated with larvae of the mustard beetle (Phaedon cochleariae).
After 7 days, the efficacy in % is determined 100% means that all beetle larvae have been killed; 0% means that no beetle larvae have been killed.

[3] = test system: caterpillars of the armyworm (Spodoptera frugiperda); experiment: Spodoptera frugiperda test (SPODFR spray treatment); assay type: in vivo; conditions: Spodoptera frugiperda, foliar, 168 h, read-out: efficacy in % (caterpillars killed)
Method: Spodoptera frugiperda Test (SPODFR Spray Treatment)
as §1, §2, §3
Leaf discs of maize (Zea mays) are sprayed with an active ingredient formulation of the desired concentration and, after drying, populated with caterpillars of the armyworm (Spodoptera frugiperda).
After 7 days, the efficacy in % is determined 100% means that all caterpillars have been killed; 0% means that no caterpillars have been killed.

[4] = test system: Lucilia cuprina 1st instar larvae; experiment: Lucilia cuprina test (LUCICU); assay type: in vivo; conditions: 100 ppm, treated horsemeat, after 48 h
Method: Lucilia cuprina Test (LUCICU)
Species: Lucilia cuprina 1st larval stage (age: 24 hours)
Solvent: dimethyl sulphoxide
To prepare an appropriate active ingredient formulation, 10 mg of active ingredient are mixed with 0.5 ml of dimethyl sulphoxide and the concentrate is diluted with water to the desired concentration.
Vessels containing 1 cm^3 of horsemeat which had been treated with the active ingredient formulation are populated with about 20 Lucilia cuprina 1st instar larvae.
After 48 h, the kill in % is determined 100% means that all larvae have been killed; 0% means that no larvae have been killed.

[5] = test system: green peach aphid (Myzus persicae); experiment: Myzus test (MYZUPE spray treatment); assay type: in vivo; conditions: in Brassica rapa, foliar, 144 h, read-out: efficacy in % (aphids killed)
Method: Myzus Test (MYZUPE Spray Treatment)
Solvent: 78 parts by weight of acetone 1.5 parts by weight of dimethylformamide
as §2, §3
Leaf discs of Chinese cabbage (Brassica pekinensis) infested by all stages of the green peach aphid (Myzus persicae) are sprayed with an active ingredient formulation of the desired concentration.
After 6 days, the efficacy in % is determined 100% means that all aphids have been killed; 0% means that no aphids have been killed.

[6] = reversed-phase C18 HPLC column, pH 2.7, HPLC reversed-phase C 18, pH 2.7, 0.1% aqueous formic acid / acetonitrile, read-out: LOGP (HCOOH)
[7] = 100 g/ha, spray on maize leaf discs, after 7 days

Structure (SMILES) | chromatographic logP ([1]; pH 2.7, LOGP (HCOOH)) | pest or weed control at 100 g/ha ([2]; in Brassica rapa) [%] | pest or weed control at 100 g/ha ([3]; in Zea mays) [%] | kill in % (larvae killed) [4] [%] | pest or weed control at 100 g/ha [5] [%] | chromatographic logP [1, 6] | pest or weed control at 100 g/ha [3, 7] [%] | pest or weed control at 100 g/ha ([2]; 100 g/ha, spray on Chinese cabbage leaf discs, after 7 days) [%]
COC(=O)c1cc(C)c(NC(=O)c2cc(Cn3nnc(C(F)(F)F)n3)nn2-c2ncccc2Cl)c(C(=O)NC(C)C)c1 [Compound 3] | 3.21 | 100 | 100 | 100 |  |  |  | 
C/C(=N\O)c1cc(C)c(NC(=O)c2cc(Cn3nnc(C(F)(F)F)n3)nn2-c2ncccc2Cl)c(C(=O)NC(C)(C)C)c1 [Compound 7] | 3 |  | 100 | 100 | 100 |  |  | 
CNC(=O)c1cc(C(C)=O)cc(C)c1NC(=O)c1cc(Cn2nnc(C(F)(F)F)n2)nn1-c1ncccc1Cl [Compound 8] | 2.53 |  | 100 |  |  |  |  | 
CC(=O)c1cc(C)c(NC(=O)c2cc(Cn3nnc(C(F)(F)F)n3)nn2-c2ncccc2Cl)c(C(=O)NC(C)C)c1 [Compound 9] | 2.94 |  | 100 |  |  |  |  | 
CC(=O)c1cc(C)c(NC(=O)c2cc(Cn3nnc(C(F)(F)F)n3)nn2-c2ncccc2Cl)c(C(=O)NC2CC2)c1 [Compound 10] | 2.73 |  | 100 |  |  |  |  | 
CC(=O)c1cc(C)c(NC(=O)c2cc(Cn3nnc(C(F)(F)F)n3)nn2-c2ncccc2Cl)c(C(=O)NC(C)C2CC2)c1 (stereo not drawn) [Compound 11] | 3.23 | 100 | 100 |  |  |  |  | 
CC(=O)c1cc(C)c(NC(=O)c2cc(Cn3nnc(C(F)(F)F)n3)nn2-c2ccccc2Cl)c(C(=O)NC(C)(C)C)c1 [Compound 12] |  |  |  |  |  | 3.76 | 100 | 
CC(=O)c1cc(C)c(NC(=O)c2cc(Cn3nnc(C(F)(F)F)n3)nn2-c2ccccc2Cl)c(C(=O)NC(C)C)c1 [Compound 13] |  |  |  |  |  | 3.46 | 100 | 100
CC(=O)c1cc(C)c(NC(=O)c2cc(Cn3nnc(C(F)(F)F)n3)nn2-c2ccccc2Cl)c(C(=O)NC(C)C2CC2)c1 (stereo not drawn) [Compound 14] |  |  |  |  |  | 3.74 | 100 | 
CCNC(=O)c1cc(C(C)=O)cc(C)c1NC(=O)c1cc(Cn2nnc(C(F)(F)F)n2)nn1-c1ccccc1Cl [Compound 16] |  |  |  |  |  | 3.27 | 100 | 
CNC(=O)c1cc(C(N)=O)cc(C)c1NC(=O)c1cc(Cn2nnc(C(F)(F)F)n2)nn1-c1ncccc1Cl [Compound 17] | 1.94 | 100 | 100 |  | 100 |  |  | 
Cc1cc(C(N)=O)cc(C(=O)NC(C)(C)C)c1NC(=O)c1cc(Cn2nnc(C(F)(F)F)n2)nn1-c1ncccc1Cl [Compound 18] | 2.5 | 100 | 100 |  | 90 |  |  | 
Cc1cc(C(N)=O)cc(C(=O)NC(C)C)c1NC(=O)c1cc(Cn2nnc(C(F)(F)F)n2)nn1-c1ncccc1Cl [Compound 19] | 2.27 | 100 | 100 |  |  |  |  | 
Cc1cc(C(N)=O)cc(C(=O)NC2CC2)c1NC(=O)c1cc(Cn2nnc(C(F)(F)F)n2)nn1-c1ncccc1Cl [Compound 20] | 2.11 | 83 | 100 |  |  |  |  | 
Cc1cc(C(N)=O)cc(C(N)=O)c1NC(=O)c1cc(Cn2nnc(C(F)(F)F)n2)nn1-c1ncccc1Cl [Compound 21] | 1.83 | 100 | 100 |  | 80 |  |  | 
Cc1cc(C(N)=S)cc(C(=O)NC(C)(C)C)c1NC(=O)c1cc(Cn2nnc(C(F)(F)F)n2)nn1-c1ncccc1Cl [Compound 22] | 2.89 | 100 | 100 |  | 90 |  |  | 
